# Values of other authors as cited in article PMC3171802 (Chemistry & biology, 2011).
# Tested on: Ba/F3 cells transformed to IL-3 independence by overexpression of PIM1 or PIM2
# Conditions: ref Pogacic et al., 2007
structure (smiles),measurement,value
CC(=O)c1cccc(-c2cnc3ccc(NCC4CC4)nn23)c1 [Compound K00135],survival of Ba/F3 cells transformed by PIM1 or PIM2,significantly impaired survival
